# Source: patent publication US10543183B2, “Treatment and diagnosis of melanoma” (The Rockefeller University, priority 2012, dated 2020)
# Structures can show the parent of a compound that is named as a salt.
# Assays:
# [1] = system: melanoma cells; assay: cell proliferation and viability assay; assay type: cell-based, human; details: for cell proliferation or cell viability rates: MeWo, HT-144, SK-Mel-334.2, 1 μM, 5 days
# Description: To determine the effects of miR-199a or miR-1908 over-expression and combinatorial LNA-induced miRNA inhibition on cell proliferation, 2.5×10^4 cells were seeded in triplicate in 6-well plates, and viable cells were counted after 5 days. […] Viable cells were counted after 8, 24, 48, 72, and 120 hours.
# After 5 days, the number of viable and dead cells was counted using the trypan blue dye (72-57-1, Sigma-Aldrich), which selectively labels dead cells.
# [2] = system: human melanoma cells (MeWo, MeWo-LM2, A375-LM3, HT-144, SK-Mel-334.2); assay: tail-vein lung metastatic colonization assay; assay type: in vivo, mouse; details: for reduction in lung metastatic colonization by MeWo cells: orally administered, immunocompromised mice
# Description: After 8 hours, the transfection media was replaced with fresh media. After 48 hours, 1×10^5 cells were injected intravenously into NOD-SCID mice to assess lung metastatic colonization or through intracardiac injection into athymic nude mice to assess systemic metastasis. For cell invasion and endothelial recruitment in vitro assays, the cells were used 96 hours post-transfection.
# Melanoma cells used for in vivo metastasis assays were transduced with a stably expressed retroviral construct encoding a luciferase reporter gene (Ponomarev et al., 2004), allowing us to monitor the in vivo progression of melanoma cells by bioluminescence imaging. The following numbers of melanoma cells, resuspended in 100 μL of PBS, were injected intravenously via the tail-vein: 4×10^4 MeWo cells, 2.5×10^5 HT-144 cells, 2×10^5 SK-Mel-334.2 cells, 5×10^4B 16F10 cells, and 1×10^5YUMM cells. The MeWo, HT-144, and SK-Mel-334.2 cells were injected into 6-8 week-old sex-matched NOD scid mice, while the B16F10 and YUMM cells were injected into 6-8 week-old sex-matched C57BL/6 mice. In all experiments assessing at the effects of GW3965 on metastasis formation, mice were pre-treated on a control diet or a GW3965-supplemented diet (20 mg/kg) for 10 days. To assess the effect of GW3965 treatment on brain metastasis, 1×10^5 MeWo brain-metastatic derivatives were injected intracardially into athymic nude mice. Immediately following injection, mice were randomly assigned to a control diet or GW3965-supplemented diet (100 mg/kg). To determine whether oral delivery of GW3965 can inhibit the progression of incipient metastasis, NOD Scid mice were intravenously injected with 4×10^4MeWo cells and the cells were allowed to colonize the lungs for 42 days, after which mice were blindedly assigned to a control diet or a GW3965-supplemented diet (100 mg/kg) treatment.
# [3] = system: endothelial cells (HUVEC) recruited by human melanoma cells; assay: trans-well endothelial recruitment assay; assay type: cell-based; details: for ability of melanoma cells to recruit endothelial cells: MeWo, HT-144, SK-Mel-2, SK-Mel-334.2, 1 μM for 72 hours
# Description: 5×10^4 cancer cells were seeded into 24-well plates approximately 24 hours prior to the start of the assay. HUVEC's were grown to 80% confluency and serum starved in EGM-2 media supplemented with 0.2% FBS for 16 hours. HUVEC's were then pulsed with Cell Tracker Red CMTPX dye (C34552, Invitrogen) for 45 minutes. Meanwhile, cancer cells were washed with PBS, 0.5 mL of 0.2% FBS EGM-2 media was added to each well, and a 3.0 μm HTS Fluoroblock insert (351151, BD Falcon, San Jose, Calif.) was placed into each well. 1×10^5 HUVEC's, resuspended in 0.5 mL of starvation media, were seeded into each trans-well insert, and the recruitment assay was allowed to proceed for 16-18 hours at 37° C. For neutralization antibody and/or recombinant protein experiments, antibody/protein was then added to each well at the appropriate concentration as indicated in the figures: 40 μg/mL anti-ApoE 1D7, 40 μg/mL anti-IgG, 100 μM rhApoE3, and 100 μM BSA. Upon completion of the assay, the inserts were processed and analyzed as described for the matrigel invasion assay above (See Matrigel Invasion Assay).
# The endothelial recruitment assay was carried out as previously described (Pencheva et al., 2012; Png et al., 2012). Melanoma cells were treated with DMSO, GW3965, T0901317, or Bexarotene at 1 μM for 56 hours, after which 5×10^4 cells were seeded in a 24-well plate in the presence of each drug and allowed to attach for 16 hours prior to starting the assay. HUVEC cells were serum-starved overnight in EGM-2 media containing 0.2% FBS. The following day, 1×10^5 HUVEC cells were seeded into a 3.0 μm HTS Fluoroblock trans-well migration insert (351151, BD Falcon, San Jose, Calif.) fitted into each well containing cancer cells at the bottom. The HUVEC cells were allowed to migrate towards the cancer cells for 20 hours at 37° C., after which the inserts were processed as previously described (Pencheva et al., 2012). For ApoE antibody neutralization experiments, 40 μg/mL 1D7 anti-ApoE blocking antibody (Heart Institute, University of Ottawa, Ottawa, Canada) or 40 μg/mL anti-IgG control antibody (AB-108-C, R&D Systems, Minneapolis, Minn.) was added to each trans-well insert at the start of the assay.
# Subsequently, 5×10^4 cancer cells were seeded into 24-well plates in the presence of each drug or DMSO and allowed to attach for 16 hours prior to starting the assay. Human umbilical vein endothelial cells (HUVEC cells) were serum-starved in 0.2% FBS-containing media overnight. The following day, 1×10^5 HUVEC cells were seeded into a 3.0 μm HTS Fluoroblock insert (351151, BD Falcon) fitted into each well containing the cancer cells at the bottom. The HUVEC cells were allowed to migrate towards the cancer cells for 20 hours, after which the inserts were washed in PBS, fixed in 4% PFA, labeled with DAPI, and mounted on slides. The basal side of each insert was imaged using an inverted fluorescence microscope (Zeiss Axiovert 40 CFL) at 5× magnification, and the number of DAPI-positive cells was quantified using ImageJ.
Compound,cell proliferation or cell viability rates [1],reduction in metastatic colonization capacity of pre-treated cells ([2]; MeWo cells pre-treated 1 μM for 48 hours),survival times following metastatic colonization ([2]; chow 20 mg/kg),"in vivo melanoma metastasis (lung, bioluminescence) ([2]; chow diet 20 mg/kg, tail-vein injection of parental MeWo cells)",metastatic colonization by HT-144 and SK-Mel-334.2 lines ([2]; diet 20 mg/kg),suppression of colonization by incipient lung metastases ([2]; diet 100 mg/kg from d42) [fold],"number of macroscopic metastatic nodules formed ([2]; diet 100 mg/kg, d77)",reduction in lung metastatic colonization by MeWo cells ([2]; chow 20 mg/kg) [fold],ability of melanoma cells to recruit endothelial cells [3],endothelial recruitment ([3]; parental MeWo cells pre-treated for 48 hours),melanoma cell or endothelial cell in vitro proliferation ([1]; 100 μM),suppression of metastatic colonization ([2]; MeWo-LM2 cells pre-incubated for 24 hours at 100 μg/mL before injection),endothelial recruitment by metastatic LM2 cells ([3]; 100 μM added to cell media),"ability of pre-treated endothelial cells to migrate towards highly metastatic cancer cells ([3]; endothelial cells pre-incubated 100 μM, 24 hours, LM2 cells)"
"O=C(O)Cc1cccc(OCCCN(Cc2cccc(C(F)(F)F)c2Cl)CC(c2ccccc2)c2ccccc2)c1 [GW3965 2, 3-[3-[N-(2-Chloro-3-trifluoromethylbenzyl)-(2,2-diphenylethyl)amino]propyloxy] phenylacetic acid hydrochloride]",did not affect,more than 50 fold,significantly prolonged,significant reduction,suppressed,28,decreased,31,consistently suppressed,decreased,–,–,–,–
O=S(=O)(c1ccccc1)N(CC(F)(F)F)c1ccc(C(O)(C(F)(F)F)C(F)(F)F)cc1 [T0901317 1],did not affect,–,–,–,–,–,–,23,consistently suppressed,–,–,–,–,–
"recombinant ApoE3: recombinant human ApoE3 (4696, BioVision)",–,–,–,–,–,–,–,–,–,–,did not affect,over 300 fold,significantly suppressed,significantly reduced
